Source: paper PMC4820820, “CETSA screening identifies known and novel thymidylate synthase inhibitors and slow intracellular activation of 5-fluorouracil” (Nature Communications, 2016)

Legend:
[1] = biological target: T1, human thymidylate synthase (TS) (Homo sapiens, UniProt P04818); assay: CETSA primary screen / single-concentration retest, AlphaScreen, live K562 cells; type: cell-based; conditions: K562, 2 h; read-out: % stabilization in screen
T1 construct: screening in live, non-engineered cells expressing thymidylate synthase; endogenous in cells; host or cells: K562 (human myelogenous leukemia) cells
T1 sequence (P04818 2-313 limits assumed): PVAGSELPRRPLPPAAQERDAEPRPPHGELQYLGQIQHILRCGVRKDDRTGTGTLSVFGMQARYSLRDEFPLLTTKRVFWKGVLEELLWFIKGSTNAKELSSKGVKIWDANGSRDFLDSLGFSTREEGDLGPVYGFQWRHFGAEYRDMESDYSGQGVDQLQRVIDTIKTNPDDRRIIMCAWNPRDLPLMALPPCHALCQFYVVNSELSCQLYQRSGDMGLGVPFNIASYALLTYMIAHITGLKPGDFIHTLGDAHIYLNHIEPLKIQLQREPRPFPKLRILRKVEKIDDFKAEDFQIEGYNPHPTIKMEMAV
Description: Compounds were placed in columns 1–22. […] At the day of the experiment the plates were allowed to thaw for 30 min followed by a brief centrifugation step (1,000 × g for 1 min) prior to removal of the seal. The compounds were then diluted with 20 μl supplemented cell culture medium using a Multidrop Combi reagent dispenser (Thermo Scientific). Finally 5 μl of the diluted compounds were transferred to a 384 well hardshell PCR plate (HSR480, BIORAD) using a Bravo liquid handling platform equipped with a 384-well head (Agilent). […] The final concentration of DMSO in the assay was 0.5% in all samples.
(§1) The screen procedure started with the addition of 5 μl of a suspension of K562 cells at a density of 10 million cells per ml to all wells of a 384 well hardshell PCR plate (HSR480, BIORAD) using an electronic multichannel pipette (Biohit). […] For the time-course experiments the incubation times were altered to include also 10 min, 30 min and 6 h. […] After the incubation step the plates were transiently heated at 50 °C for 3 min followed by a controlled cooling to 20 °C for 1 min using a real-time PCR machine (LightCycler480 system, Roche). Plate handling was then as described above for the thermal aggregation experiments. The data were analyzed using microsoft excel and GraphPad Prism 6.
(§2) A calculation of the average and standard error of means for each set of controls also allowed an illustration of how these responses varied over the 32 screening plates. The Z′ factor[38] is commonly used as a measure of how well the assay separates between the controls and this was calculated as described based on the calculated averages and standard deviations of the controls on a per plate basis. For the Tagg shift and the […] experiments the data were analyzed in GraphPad Prism using the Boltzmann sigmoid equation and the saturation binding curve (rectangular hyperbola; binding isotherm) function, respectively. As already discussed[14] these methods make use of equilibrium models for data analysis although the methodology depends on the irreversible aggregation of denatured material. For this reason we refer to the observed responses as apparent and isothermal dose-response fingerprints and are careful with any quantitative interpretations, being well aware of their dependency on experimental conditions. Experiments are on-going to address the quantitative interpretation of CETSA data.

[2] = biological target: T1, human thymidylate synthase (TS); assay: ITDRF CETSA at 50 °C, AlphaScreen detection, live K562 cells; type: cell-based; conditions: 2 h preincubation, 50 °C for 3 min, read-out: […] apparent EC50
Description: For the […] experiments 11-point dose-response curves with three-fold difference in concentration between wells were generated using the Bravo liquid handling system (all serial dilutions were done in 100% DMSO). […] The concentration of DMSO was 0.5% in all samples. […] The assay ready plates were prepared as outlined above for the screen.
as §1, §2

[3] = Intracellular compound and metabolite concentrations by LC-MS/MS in K562 cells; type: in vitro ADME, human; conditions: K562 cells incubated with 100 µM 5-FU, first 6 h
Description: Intracellular concentrations of compounds were measured as previously described. Briefly, K562 cells were incubated with the compounds for a predefined time at 37 °C in a 5% CO2 atmosphere. After incubation, the cells were centrifuged (300 × g for 5 min) and a medium sample (supernatant) was collected and diluted 1:10 in a 50 nM warfarin solution (internal standard). The cells were washed with phosphate buffered salt solution and lysed with methanol. Methanol was evaporated and the cell samples were reconstituted in 50 nM warfarin. Samples were analyzed with LC–MS/MS with electrospray ionization in negative mode with transitions monitored as listed in Table 2.

In the case of `O=c1[nH]cc(F)c(=O)[nH]1` [Compound 5-FU, 5-fluorouracil], the % stabilization in screen at 50 µM [1] is reported as 48%, the EC50 [2] is reported as 19 ± 4 µM and the “intracellular levels of FdUMP” value [3] is reported as “undetectable”.
